# Source: patent US7914776B2, “Solid dispersions of opioid antagonists” (Adolor Corporation, priority 2005, dated 2011)
# Columns and labels:
# [1] = Intrinsic dissolution experiments (Woods apparatus); assay type: physicochemical; settings: approximately 37° C., 75 rpm, 900 mL medium, value (SD)
# Protocol: Intrinsic dissolution experiments were conducted in a VanKel VK7010 dissolution apparatus equipped with a VK750A heater/circulator. An intrinsic dissolution apparatus (Woods apparatus) and hydraulic press were used to press samples of approximately 200 mg at approximately 1000 psi for 1 minute, giving a sample surface of 0.50 cm^2. Experiments were conducted in media of pH=1.2 HCl solution and pH =4.5 phosphate solution. 900 mL of medium was used for each experiment and the medium was maintained at approximately 37° C. The apparatus was rotated at 75 rpm. The Cary 50 UV/Vis spectrophotometer was utilized to sample automatically throughout the duration of the experiments.
# Samples were analyzed with a Cary 50 UV-VIS double-beam spectrophotometer, and were analyzed in 1.000-cm quartz cuvettes at a wavelength of 271 nm. The detector was zeroed with a cuvette filled with dissolution medium prior to sample analysis. Wavelength calibration was performed using holmium oxide. The photometric accuracy was verified by measuring the intensity of the light at the detector when filters of known optical density were placed in the path of the beam.
# [2] = Solubility in water (statement); assay type: physicochemical; settings: statement in words, dihydrate
# [3] = Bioavailability (statement); assay type: in vivo; settings: statement in words, dihydrate
# [4] = Conversion of amorphous form to crystalline dihydrate form (background statement); assay type: physicochemical
# Excerpt: [[2(S)-[[4(R)-(3-hydroxyphenyl)-3(R),4-dimethyl-piperidinyl]methyl]-1-oxo-3-phenylpropyl]amino]acetic acid may exist in different crystalline forms, including hydrate forms, solvate forms and anhydrous form, and as an amorphous material. Above a relative humidity of about 15%, it exists in its crystalline dihydrate form. Below a relative humidity of about 15%, it exists in its anhydrous form. Amorphous [[2(S)-[[4(R)-(3-hydroxyphenyl)-3(R),4-dimethyl-piperidinyl]methyl]-1-oxo-3-phenylpropyl]amino]acetic acid is hygroscopic and converts to its crystalline dihydrate form when it is stressed, for example, at 54% relative humidity for 12 days or 75% relative humidity in the temperature range of about 40° C. to about 80° C. for three days. Under ambient conditions, amorphous [[2(S)-[[4(R)-(3-hydroxyphenyl)-3(R),4-dimethyl-piperidinyl]methyl]-1-oxo-3-phenylpropyl]amino]acetic acid completely converts to its crystalline dihydrate form after 66 days.
# [5] = assay type: physicochemical
# Protocol: Amorphous samples were exposed to ambient, 53%, and 97% relative humidities at ambient temperature (about 10° C. to about 30° C.). The samples were also exposed to 75% relative humidity at 40° C. The samples were stressed for up to 60 days. Samples were taken periodically throughout the study and analyzed by x-ray powder diffraction (XRPD) for presence of crystallinity.
# Relative humidity stress studies were performed to assess the stability of amorphous alvimopan and solid dispersions. Studies were performed at ambient, 53%, and 97% relative humidity at ambient temperature. Ambient relative humidity and temperature was measured as approximately 24% and 22° C. Samples were also stressed at 75% relative humidity at 40° C. Samples were analyzed by XRPD for the presence of crystallinity.
Structure (SMILES),"Intrinsic Dissolution Rate, mg/min/cm^2 (SD), pH 1.2 HCl [1]",solubility in water ([2]; listed as Alvimopan),solubility in water ([2]; listed as alvimopan),solubility in water ([2]; listed as compound of formula (II)),bioavailability ([3]; listed as Alvimopan),bioavailability ([3]; listed as alvimopan),time stressed after which amorphous form converts to its crystalline dihydrate form ([4]; 54% relative humidity),"time stressed after which amorphous form converts to its crystalline dihydrate form ([4]; 75% relative humidity, about 40° C. to about 80° C.)",time after which amorphous form completely converts to its crystalline dihydrate form ([4]; ambient conditions),Stability conclusion of the stress studies [5]
"C[C@H]1CN(C[C@H](Cc2ccccc2)C(=O)NCC(=O)O)CC[C@@]1(C)c1cccc(O)c1 [crystalline alvimopan, [[2(S)-[[4(R)-(3-hydroxyphenyl)-3(R),4-dimethyl-1-piperidinyl]methyl]-1-oxo-3-phenylpropyl]amino]acetic acid dihydrate]",0.148 (0.025) mg/min/cm^2,extremely low solubility in water,lower solubility in water than amorphous,low solubility in water except at low or high pH conditions,poor oral bioavailability,lower bioavailability than the amorphous form,,,,
"C[C@H]1CN(C[C@H](Cc2ccccc2)C(=O)NCC(=O)O)CC[C@@]1(C)c1cccc(O)c1 [amorphous preparation, [[2(S)-[[4(R)-(3-hydroxyphenyl)-3(R),4-dimethyl-piperidinyl]methyl]-1-oxo-3-phenylpropyl]amino]acetic acid]",0.217 (0.017) mg/min/cm^2,,,,,,12 days,three days,66 days,stable under stress conditions except at 97% relative humidity
